Columns and labels:
Solubility of KAYA1 = assay type: physicochemical
Method: The Boc protecting group of compound A is cleaved with trifluoro acetic acid (6.7 ml, 87 mmol) in methanol (3 ml, 74 mmol) for 18 hours at room temperature. After evaporation and recrystallization in anisole KAYA1 was characterized by electrospray mass spectrometry: (Mfound 389.1245 m/e, 391.1611 m/e, Mcalc 388.12 m/e, 390.12 m/e); 1H NMR spectroscopy (CD3OD): S=1.39 ppm (m, 4H), 1.59 ppm (m, 2H), 1.64 ppm (m, 2H), 2.80 ppm (t, 2H), 3.24 ppm (t, 2H), 7.03 ppm (d, 1H), 7.08 ppm (d, 1H), 7.42 ppm (d, 1H), 7.65 ppm (d, 1H), 7.92 ppm (s, 1H); UV-Vis spectrophotometry (Absmax: 574 nm and 623 nm) and fluorimetry (Emmax: 660 nm).

[1] = test system: membranes of live HeLa cells; assay: In vivo labelling of live cells, confocal laser scanning microscopy; assay type: cell-based; settings: live HeLa cells after incubation with KAYA1 labelling solution (FIGS. 2a to 2c)
Method: A protocol for the labelling of live cells was optimized for cultured HeLa cells (epithelial, cervical carcinoma), for LnCAP (Prostatacancer, fibroblasts) and VH7 (foreskin fibroblasts) that are adhering to coverslips. Cells are cultured on coverslips in DEMEM (VH7, HeLa) RPMI (LnCAP) with 10% foetal calf serum, 1 mM glutamine and antibiotics and incubated at 37° C. in an atmosphere of 5% CO2. A 5 μM solution of KAYA1 is prepared in a HEPES-Glucose buffer medium containing 115 mM NaCl, 1.2 mM CaCl2, 1.2 mM MgCl2, 1.2 mM K2HPO4, 20 mM HEPES, 10 mM Glucose, pH 7.4. After removing the cell medium the cells are incubated with the labeling solution for 1 minute at 37° C. The labeling solution is removed, the cells washed in 1×PBS and incubated with the cell medium, prior to analysis.
(§1) The System used was a Leica DM IRBE (TSC/SP2) microscope operating with a helium/neon laser. Detection of all probes was visualized with the laser emission line 633 nm, the detection window was realized between 650 nm-800 nm.
CLSM allows the blur from out of focus regions of the fluorescent specimen to be blocked, resulting in crisp, sharp images from well defined planes in the axial direction. Therefore the images presented here show well defined optical sections in z-axis of the microscope.

[2] = test system: cell membranes of fixed cells; assay: In vitro labelling of fixed cells; assay type: cell-based; settings: formaldehyde-fixed cells, 5 μM in 1×PBS, 5 minutes at 37° C.
Method: Staining the cell membranes of fixed cells is also compatible with KAYA1. For staining, the cells are cultured at the same conditions as described for in vivo labelling. The cells are fixed with HEPEM buffer containing 3.7% formaldehyde, 65 mM PIPES, 30 mM HEPES, 10 mM EGTA, 2 mM MgCl2, pH 6.9 for 15 min. Then the cells are washed twice with 1×PBS for 7.5 min. Finally the cell membranes are stained with KAYA1 (5 μM in 1×PBS) for 5 minutes at 37° C., washed with 1×PBS and covered with Vectashield.
as §1

HeLa cell = assay: Colocalization experiments with wheat-germ agglutinin (WGA); assay type: cell-based; settings: in vivo stains with KAYA1 compared with WGA in fixed cells (FIGS. 2a to 2c, 3a to 3c)
Description: Wheat-germ agglutinin (WGA) is a glycoprotein (lectin) that recognizes and binds to specific glycoconjugates such as N-acetylneuraminic acid, N-acetyl glucosamine, membrane glycoprotein, chitin, cartilage, glucosamineglycans, glycolipids, and glycoproteins with sialic acid residues (cf. Monsigny M., Roche A-C., Sene C., raget-Dana R., Delmotte F., Sugar-Lectin Interactions: How does Wheat-germ Agglutinin bind Sialoglycoconjugates?, Eur. J. Biochem., 1980, (104), 147-153; Wright C S., Crystal structure of a wheat germ agglutinin/glycophorin-sialoglycopeptide receptor complex. Structural Basis for cooperative lectin-cell binding, J. Biol. Chem., 1992, 267(20), 14345-52). WGA is commonly used to stain the golgi apparatus, nuclear envelop and plasma membrane of fixed cells.
For the colocalization experiments the cells are stained with KAYA1 at the same conditions as described for in vivo labelling. Then the cells are fixed with HEPEM buffer and the membranes of the cells are permeabilized 30 min at 4° C. with 50 ml 1×PBS containing 50 mg Saponin. After washing the cells with 1×PBS for 5 min at room temperature the cells are incubated 15 min with 50 μg/ml WGA at 37° C. Finally the cells are washed with 1×PBS and covered with Vectashield, prior to analysis.

solubility in methanol (Solubility of KAYA1; methanol): soluble
solubility in water (Solubility of KAYA1; water): moderately soluble
SMILES: NCCCCCCNc1ccc(O)c2c1C(=O)c1c(O)ccc(Cl)c1C2=O [KAYA1, 1-(6-amino-hexylamino)-5-chloro-4,8-dihydroxy-anthraquinone]
membrane structures visualized by the dye [1]: visualizes the cytoplasmatic membrane, the nuclear membrane and the membrane of certain organelles such as endoplasmatic reticulum and golgi apparatus
staining of cell membranes of fixed cells [2]: compatible
similarity of stained regions with binding regions of WGA (HeLa cell): high similarity with the specific binding regions of WGA
